Laboratory results reported in publication PMC12311136 (Nature Communications, 2025).

What was measured:
Format in all cases: binding
DRP1A [1] = target: T1, DRP1A (Arabidopsis thaliana, UniProt P42697); assay: bio-layer interferometry, POPC background subtracted; conditions: 3% lipid in POPC liposomes; HEPES pH 7.5, 100 mM NaCl
T1 sequence (P42697 1-610): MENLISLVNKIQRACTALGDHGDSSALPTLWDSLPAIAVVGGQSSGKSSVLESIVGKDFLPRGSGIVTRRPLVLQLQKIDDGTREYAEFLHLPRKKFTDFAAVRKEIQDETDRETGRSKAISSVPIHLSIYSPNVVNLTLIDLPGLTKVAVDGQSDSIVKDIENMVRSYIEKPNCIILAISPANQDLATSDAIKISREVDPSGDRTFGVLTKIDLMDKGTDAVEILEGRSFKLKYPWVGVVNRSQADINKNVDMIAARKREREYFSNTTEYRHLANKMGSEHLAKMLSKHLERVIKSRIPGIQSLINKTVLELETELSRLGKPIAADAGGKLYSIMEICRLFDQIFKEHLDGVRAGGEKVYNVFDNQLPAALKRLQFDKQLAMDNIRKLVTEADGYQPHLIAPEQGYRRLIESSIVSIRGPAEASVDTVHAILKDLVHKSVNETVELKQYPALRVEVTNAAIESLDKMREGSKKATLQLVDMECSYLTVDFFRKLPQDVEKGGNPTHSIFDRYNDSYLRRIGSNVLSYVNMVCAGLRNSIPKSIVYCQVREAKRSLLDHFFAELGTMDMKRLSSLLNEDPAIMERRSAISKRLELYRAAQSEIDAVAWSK

ALA1 Loop2 (410–914 aa) [2] = target: T2, ALA1 Loop2 (410–914 aa) (Arabidopsis thaliana, UniProt P98204); assay: bio-layer interferometry, liposome-loaded APS sensor
T2 sequence (P98204 410-914): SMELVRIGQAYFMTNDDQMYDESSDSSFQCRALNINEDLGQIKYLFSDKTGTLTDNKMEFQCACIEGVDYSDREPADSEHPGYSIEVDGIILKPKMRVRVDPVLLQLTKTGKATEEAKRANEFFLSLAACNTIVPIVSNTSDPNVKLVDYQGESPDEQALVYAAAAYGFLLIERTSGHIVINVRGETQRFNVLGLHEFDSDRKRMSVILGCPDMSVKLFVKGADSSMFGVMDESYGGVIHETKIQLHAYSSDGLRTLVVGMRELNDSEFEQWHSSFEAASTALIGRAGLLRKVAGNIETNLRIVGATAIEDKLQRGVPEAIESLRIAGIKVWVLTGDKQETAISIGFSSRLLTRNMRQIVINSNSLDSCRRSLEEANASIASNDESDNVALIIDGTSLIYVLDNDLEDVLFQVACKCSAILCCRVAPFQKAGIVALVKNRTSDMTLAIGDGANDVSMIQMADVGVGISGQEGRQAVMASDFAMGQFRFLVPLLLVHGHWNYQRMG

ALA1 Loop1 (151–329 aa) = target: T3, ALA1 Loop1 (151–329 aa) (Arabidopsis thaliana, UniProt P98204); assay: as above
T3 sequence (P98204 151-329): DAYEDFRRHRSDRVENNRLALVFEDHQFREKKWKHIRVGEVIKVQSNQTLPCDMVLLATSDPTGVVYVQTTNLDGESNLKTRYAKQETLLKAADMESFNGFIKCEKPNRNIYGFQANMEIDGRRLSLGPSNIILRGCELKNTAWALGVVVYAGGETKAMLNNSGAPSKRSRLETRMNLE

ALA1 Loop2 (410–914 aa) [3] = target: T2, ALA1 Loop2 (410–914 aa); assay: bio-layer interferometry, POPC background subtracted; conditions: 3% lipid in POPC liposomes; HEPES pH 7.5, 100 mM NaCl
DRP1A [4] = target: T1, DRP1A; assay: bio-layer interferometry, liposome-loaded APS sensor

| SMILES | bio-layer interferometry, POPC background subtracted (DRP1A [1]) | Kd (ALA1 Loop2 (410–914 aa) [2]) [µM] | Kd (ALA1 Loop1 (151–329 aa)) [µM] | bio-layer interferometry, POPC background subtracted (ALA1 Loop2 (410–914 aa) [3]) | Kd (DRP1A [4]) [µM] |
| --- | --- | --- | --- | --- | --- |
| CCCCCCCC/C=C\CCCCCCCC(=O)OC[C@H](COP(=O)(O)O[C@H]1[C@H](O)[C@@H](O)[C@H](OP(=O)(O)O)[C@@H](O)[C@H]1O)OC(=O)CCCCCCC/C=C\CCCCCCCC [PI4P] | followed by weaker binding to PI4P and PS liposomes | 2.21 | 6.05 | – | – |
| CCCCCCCC/C=C\CCCCCCCC(=O)OC[C@H](COP(=O)(O)O[C@H]1[C@H](O)[C@@H](OP(=O)(O)O)[C@H](O)[C@@H](O)[C@H]1O)OC(=O)CCCCCCC/C=C\CCCCCCCC [PI5P] | – | – | – | highest near-steady-state binding was observed with PS, PI4P and PI5P liposomes | – |
| CCCCCCCC/C=C\CCCCCCCC(=O)OC[C@H](COP(=O)(O)O[C@@H]1[C@H](O)[C@H](O)[C@@H](OP(=O)(O)O)[C@H](OP(=O)(O)O)[C@H]1O)OC(=O)CCCCCCC/C=C\CCCCCCCC [PI(4,5)P2] | – | – | – | – | 1.23 |
| CCCCCCCC/C=C\CCCCCCCC(=O)OC[C@H](COP(=O)(O)OC[C@H](N)C(=O)O)OC(=O)CCCCCCC/C=C\CCCCCCCC [PS] | followed by weaker binding to PI4P and PS liposomes | – | – | highest near-steady-state binding was observed with PS, PI4P and PI5P liposomes | – |
